Structures can show the parent of a compound that is named as a salt. Where two headings read alike, the source gives them in different places.
Legend:
[1] = tested on: tumor-induced bone pain (tactile allodynia)
Method: This study was conducted in two parts; the first phase determined the optimal dose level for the second phase.

sigma receptor = conditions: Sigma 1 and Sigma 2; cited from earlier work

Structure (SMILES): Cc1cc(OCCN2CCOCC2)nn1-c1ccc2ccccc2c1 [example 1, 4-{2-[5-Methyl-1-(naphthalen-2-yl)-1H-pyrazol-3-yloxy]ethyl}morpholine hydrochloride]
- mitigation of allodynia (von Frey test) ([1]; Phase 2, example 1 alone 40 mg/kg, 30 minutes after administration): not at 40 mg/kg
- mitigation of allodynia (von Frey test) ([1]; Phase 2, example 1 alone 80 mg/kg, 30 minutes after administration): statistically significant mitigation of allodynia

Structure (SMILES): CC(C)=CCN1CCC2(C)c3cc(O)ccc3CC1C2C (stereo not shown) [pentazocine]
- affinity of the sigma receptors (sigma receptor): very high affinity

Structure (SMILES): CN1CC[C@]23c4c5ccc(O)c4O[C@H]2[C@@H](O)C=C[C@H]3[C@H]1C5 [morphine]
- mitigation of allodynia (von Frey test) ([1]; Phase 1, morphine 1.25 mg/kg given at day 18): sub threshold dose
- mitigation of allodynia (von Frey test) ([1]; Phase 1, morphine 2.5 mg/kg given at day 18): able to mitigate allodynia with statistical significance
- mitigation of allodynia (von Frey test) ([1]; Phase 1, morphine 5 mg/kg given at day 18): able to mitigate allodynia with statistical significance
- effect on allodynia 24 hours after administration ([1]; Phase 2, morphine 5 mg/kg (positive control), 24 hours after administration): no significant effect
